Series [1] is described as follows: Cytotoxicity assay, CellTiter-Glo cell viability. In kind it is cell-based. The note with it: African green monkey; Vero cells, 72 hours; read-out: Cytotoxicity IC50. A digest of the protocol: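 Vero cells seeded overnight at 37 °C in DMEM with 10% FBS, then exposed to serial dilutions of compound for 72 h. Viability read by CellTiter-Glo luminescence; IC50 from duplicates, given as the range of two independent experiments.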
For orientation: Cellular ATP, detected with luciferase, serves as a proxy for viable cell number.

Series [2] addresses T1, Sa-ClpP (Staphylococcus aureus, UniProt Q2G036).
T1 construct: made in house; host or cells: E. coli BL21 (DE3)
Nature of the series: ADEP displacement fluorescence polarization assay. It is filed as binding, S. aureus. The note with it: 1 μM Sa-ClpP, 50 nM FP probe ADEP 2591; read-out: ADEP Displacement IC50. Summed up:
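Displacement of TAMRA-labelled ADEP 2591 probe (50 nM) from 1 μM Sa-ClpP, pre-equilibrated 1 h in Tris·HCl pH 8.0 with 2% DMSO, then 120 min at room temperature with compound, triplicate. Polarization (mP) read ex 530/em 579 nm, normalised to 20 μM ADEP 2378 and DMSO controls; four-parameter fit.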

For series [3], the target named is T2, S. aureus ClpP (Sa-ClpP) (Staphylococcus aureus, UniProt Q2G036).
T2 construct: made in house; host or cells: E. coli BL21 (DE3)
The series is described as follows: ClpP activation, casein-BODIPY digestion assay (first described method). In kind it is biochemical. The note with it: first described ClpP activation assay (**); 10 μM saClpP, 25 μg/ml BODIPY FL casein, 37° C.; read-out: ClpP Activation EC50. A digest of the protocol:
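Purified E. coli-expressed Sa-ClpP (10 μM) with 25 μg/ml BODIPY FL casein and 0-100 μM compound in 50 mM Tris pH 8, 200 mM KCl, 1 mM TCEP at 37° C. Fluorescence (ex 485/em 528 nm) read every 5 min over 45 min; velocities fit to dose-response for EC50 of 50% activation, in triplicate.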

The subject of series [4] is S. pyogenes ATCC 700294. The series is described as follows: Minimal inhibitory concentration, microbroth dilution. In kind it is cell-based. The note with it: Streptococcus pyogenes, ATCC700294, read-out: Minimal Inhibitory Concentration S. pyogenes ATCC 700294. Summed up:
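Twofold serial dilutions in broth per CLSI M7-A7 microbroth dilution, incubated aerobically overnight at 37° C. MIC read visually as lowest concentration preventing bacterial growth.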

Each structure is given as a SMILES string. Converted amounts (≈) assume the structure as drawn. *1 amine or outer side, *2 acyl side, *3 side chain or, on linkers, in order; H or OH if unused. Where a SMILES comes first, the peptide text is derived from it. Bridges are numbered along the chain shown (N, C = ends). [ ]: non-standard residue; d: D form. The star is where a group is joined. Phe(3,5-F2) = N[C@@H](Cc1cc(F)cc(F)c1)C(=O)O; NHPh(4-CF3) = FC(F)(F)c1ccc(N*)cc1; aThr = C[C@H](O)[C@H](N)C(=O)O; Pip = O=C(O)[C@@H]1CCCCN1; CO = O=C([*:1])[*:2]

One may read the IC50 as the concentration needed to halve the response being measured. Usually EC50 stands for the concentration needed to bring the measured effect to its halfway point.

T1 sequence (Q2G036 whole entry): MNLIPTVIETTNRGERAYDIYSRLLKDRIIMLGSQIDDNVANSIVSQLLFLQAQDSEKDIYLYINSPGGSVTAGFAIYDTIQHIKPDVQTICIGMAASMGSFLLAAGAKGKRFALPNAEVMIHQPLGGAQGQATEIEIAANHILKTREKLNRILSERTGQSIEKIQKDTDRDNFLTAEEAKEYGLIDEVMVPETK
T2 sequence (Q2G036 whole entry): as above

Take `C[C@@H]1C[C@H]2C(=O)OC[C@H](NC(=O)[C@H](Cc3ccccc3)NC(=O)Nc3ccccc3Cl)C(=O)N3CCC[C@H]3C(=O)N3CCCC[C@H]3C(=O)N[C@@H](C)C(=O)N2C1` [Compound 7, (S)-2-(3-(2-Chlorophenyl)Ureido)-N-((2R,6S,8aS,14aS,20S,23aS)-2,6-Dimethyl-5,8,14,19,23-Pentaoxooctadecahydro-1H,5H,14H,19H-Pyrido[2,1-I]Dipyrrolo[2,1-C:2′,1′-L][1]Oxa[4,7,10,13]Tetraazacyclohexadecin-20-Yl)-3-Phenylpropanamide]: the IC50 at 72 h in series [1] was above 100 µM. In addition, in series [2], the IC50 is 130 ± 11.3 µM. Moreover, the EC50 in series [3] was 34.6 ± 6.8 µM. Besides, in series [4], the MIC came to 3.13 µM (≈ 2.44 µg/mL).

`C[C@@H]1NC(=O)[C@@H]2CCCCN2C(=O)[C@@H]2CCCN2C(=O)[C@@H](NC(=O)[C@H](Cc2cc(F)cc(F)c2)NC(=O)Nc2ccc(C(F)(F)F)cc2)[C@H](C)OC(=O)[C@@H]2CCCN2C1=O` [Compound 16, (S)-3-(3,5-Difluorophenyl)-N-((6S,8aS,14aS,20S,21 S,23aS)-6,21-Dimethyl-5,8,14,19,23-Pentaoxooctadecahydro-1H,5H,14H,19H-Pyrido[2,1-I]Dipyrrolo[2,1-C:2′,1′-L][1]Oxa[4,7,10,13]Tetraazacyclohexadecin-20-Yl)-2-(3-(4-(Trifluoromethyl)Phenyl)Ureido)Propanamide] ({NHPh(4-CF3)-CO}-[Phe(3,5-F2)][aThr]P[Pip]AP; ester 2-C): the IC50 at 72 h in series [1] was 74.3 ± 9 µM. Further, the IC50 in series [2] amounted to 8.3 ± 0.6 µM. In addition, the EC50 in series [3] was 4.4 ± 0.7 µM. For the same compound, the MIC in series [4] is 1.5 µM (≈ 1.27 µg/mL).

For `COc1ccc(NC(=O)N[C@@H](Cc2ccccc2)C(=O)N[C@H]2COC(=O)[C@@H]3C[C@@H](C)CN3C(=O)[C@H](C)NC(=O)[C@@H]3CCCCN3C(=O)[C@@H]3CCCN3C2=O)cc1` [Compound 6, (S)—N-((2R,6S,8aS,14aS,20S,23aS)-2,6-Dimethyl-5,8,14,19,23-Pentaoxooctadecahydro-1H,5H,14H,19H-Pyrido[2,1-1]Dipyrrolo[2,1-C:2′,1′-L][1]Oxa[4,7,10,13]Tetraazacyclohexadecin-20-Yl)-2-(3-(4-Methoxyphenyl)Ureido)-3-Phenylpropanamide], the IC50 at 72 h in series [1] is above 100 µM. Also, the IC50 in series [2] was found to be 27.7 ± 1.5 µM. In addition, the EC50 in series [3] is 2 ± 0.1 µM. Besides, the MIC in series [4] came out at 0.39 µM (≈ 0.302 µg/mL).

As for `C[C@@H]1C[C@H]2C(=O)OC[C@H](NC(=O)[C@H](Cc3ccccc3)NC(=O)Nc3ccc(Cl)cc3)C(=O)N3CCC[C@H]3C(=O)N3CCCC[C@H]3C(=O)N[C@@H](C)C(=O)N2C1` [Compound 3, (S)-2-(3-(4-Chlorophenyl)Ureido)-N-((2R,6S,8aS,14aS,20S,23aS)-2,6-Dimethyl-5,8,14,19,23-Pentaoxooctadecahydro-1H,5H,14H,19H-Pyrido[2,1-I]Dipyrrolo[2,1-C:2′,1′-L][1]Oxa[4,7,10,13]Tetraazacyclohexadecin-20-Yl)-3-Phenylpropanamide], the IC50 at 72 h in series [1] stood at 63 ± 5.8 µM. Besides, the IC50 in series [2] came out at 9.25 ± 0.5 µM. Further, the EC50 in series [3] turned out to be 3.3 ± 0.2 µM. Further, in series [4], the MIC was 0.39 µM (≈ 0.304 µg/mL).

As for `Cc1ccc(NC(=O)N[C@@H](Cc2cc(F)cc(F)c2)C(=O)N[C@@H]2C(=O)N3CCC[C@H]3C(=O)N3CCCC[C@H]3C(=O)N[C@@H](C)C(=O)N3CCC[C@H]3C(=O)O[C@H]2C)cc1` [Compound 15, (S)-3-(3,5-Difluorophenyl)-N-((6S,8aS,14aS,20S,21 S,23aS)-6,21-Dimethyl-5,8,14,19,23-Pentaoxooctadecahydro-1H,5H,14H,19H-Pyrido[2,1-I]Dipyrrolo[2,1-C:2′,1′-L][1]Oxa[4,7,10,13]Tetraazacyclohexadecin-20-Yl)-2-(3-(P-Tolyl)Ureido)Propanamide], in series [1], the IC50 at 72 h is 39.7 ± 6.6 µM. In addition, the IC50 in series [2] came out at 8.4 ± 0.2 µM. For the same compound, the EC50 in series [3] turned out to be 4.6 ± 0.9 µM. For the same compound, the MIC in series [4] came to 0.6 µM (≈ 0.476 µg/mL).

Values taken from US9879050B2, “Substituted urea depsipeptide analogs as activators of the CLPP endopeptidase” (priority 2013, dated 2018).
